Reference: ChEMBL document CHEMBL3507680, “University of Dundee, Gates Library screen for HepG2 cell viability”

Assay: Human HepG2 cell viability assay in 384 well format
Type: toxicity, cell-based
Design: dose 125 nL, time 70.5 hour; cytotoxicity at 70.5 h: concentration not given beside the values
Conditions: HepG2 cells, read-out: Inhibition

SMILES | cytotoxicity at 70.5 h [%]
CNC(=O)C(C)(C)N1CCC[C@H]1C(=O)NC(C)(C)C | 14.3
CN1CCC(N2CCN3C(=O)NC[C@H]3C2)CC1 | -3.25
O=C(NC[C@H]1OC[C@@H](NCc2ccc(F)cc2)[C@@H]1O)c1ccncc1 | 0.548
OCCc1cc(CC2(NCc3ccncc3)COC2)no1 | -4.15
O=C(NC[C@H]1OC[C@@H](NC2CCCCC2)[C@@H]1O)Nc1ccccc1 | 15.8
COc1ccc2nc3n(c2c1)[C@@H](CNC(=O)c1cncnc1)COC3 | -2.36
Cc1ccc2c(c1)nc1n2[C@@H](CNC(=O)c2ccccn2)COC1 | 11.4
Cc1nc(C)c(CN2CCOC[C@H](Oc3ccccc3)C2)s1 | -10.6
COc1ccc(CN2CCOC[C@H](OCc3ccccc3)C2)cc1 | -8.76
COc1ccc(CN2CCOC[C@H](OCCC(C)C)C2)cc1 | -4.37
Cc1cccc2c1nc1n2[C@@H](CNC(=O)c2cncnc2)COC1 | -3.15
O=C(C1CCOCC1)N1CCN2C(=O)N(Cc3ccc(F)cc3)C[C@H]2C1 | -3.96
c1ccc(O[C@H]2COCCN(Cc3c[nH]c4ccccc34)C2)cc1 | -6.76
COc1ccc(O[C@H]2COCCN(C(=O)c3ccno3)C2)cc1 | -2.74
CC(C)(C)CN1CCOC[C@H]1c1nc(-c2cccc(F)c2)c[nH]1 | -6.97
CN1C[C@@H](F)[C@@H](OCc2nc3ccc(C#N)cc3[nH]2)C1 | -2.32
CC(C)c1noc([C@@H]2Cc3[nH]cnc3CN2C(=O)Nc2ccccc2)n1 | 9.88
O=C1CO[C@H]2CN(S(=O)(=O)c3ccccc3)C[C@H]2N1c1ccccc1 | -8.37
O=C1CO[C@H]2CN(Cc3cccnc3)C[C@H]2N1 | -1.16
Cc1noc([C@@H]2C[C@H](NC(=O)NC(C)C)CN2C)n1 | -0.832
CC(=O)N1CCC(NC2(Cc3cc(CN(C)C)on3)COC2)CC1 | 11.9
Cc1ccc(CNC2(Cc3cc(-c4ccc(F)cc4)on3)COC2)o1 | -2.05
Cc1ccccc1C(=O)Nc1ccc([C@H]2OCC(=O)N(C)[C@@H]2CO)cc1 | -0.197
COc1ccccc1CN1C[C@@H](F)[C@@H](OCc2nc3ncccc3[nH]2)C1 | -0.841
Cc1cccc2c1nc1n2[C@@H](CNC(=O)NC(C)C)COC1 | -0.416
Fc1ccc2c(c1)nc1n2[C@@H](CNCc2nccs2)COC1 | -7.36

SMILES | cytotoxicity at 70.5 h [%]
COc1ccc2nc(C[C@@H]3C[C@@H](C(C)C)[C@H](CN(C)C)C=C3C)[nH]c2n1 | -3.85
CC(C)(C)C(=O)N1C[C@@H](F)[C@@H](OCc2nc3ncccc3[nH]2)C1 | -2.41
N#Cc1cccc(CN2C[C@@H](F)[C@@H](OCc3nc4cnccc4[nH]3)C2)c1 | 11.4
COc1cccc(CN2C[C@@H](F)[C@@H](OCc3nc4cnccc4[nH]3)C2)c1 | 2.35
Fc1ccc2[nH]c(CO[C@H]3CN(CC4CC4)C[C@H]3F)nc2c1 | 1.66
O=C(NC[C@H]1OC[C@@H](NC2CCC(F)(F)CC2)[C@@H]1O)Nc1ccccc1 | 0.362
O=C(NC[C@H]1OC[C@@H](NC2CCOCC2)[C@@H]1O)C1CCCC1 | -6.06
c1ccc(O[C@H]2COCCN(Cc3cccc4c3OCO4)C2)cc1 | -1.37
Cc1cc(C(=O)N2CCOC[C@H](Oc3cccnc3)C2)c(C(F)(F)F)o1 | 9.27
Cc1ccc(S(=O)(=O)NC[C@H]2OC[C@@H](NCc3cccs3)[C@@H]2O)cc1 | 7.42
O=C(NC1CCCC1)O[C@H]1COCCN(c2nc3ccccc3o2)C1 | -3.6
Cc1ccc(-c2cn3c(n2)CO[C@@H](CNCc2nccs2)C3)cc1 | -2.93
O=C(c1ccno1)N1CCOC[C@H](Oc2ccccc2)C1 | -3.41
O=S(=O)(Cc1ccccc1)NC[C@H]1Cn2ccnc2CO1 | 10.3
CC(C)(C)CN[C@@H]1CO[C@H](CNC(=O)c2cccs2)[C@H]1O | 4.02
O=C(NC[C@H]1OC[C@@H](NC2CCC2)[C@@H]1O)Nc1ccccc1 | 16.4
O=C1CCC2(CCCN(C(=O)Cc3ccccc3)C2)N1 (stereo unspecified) | 5.57
O=C1CCC2(CCCN(C(=O)Cc3ccccn3)C2)N1 (stereo unspecified) | 2.4
CC(=O)N1CCN(C(=O)Nc2ccccc2)CC2(CC(=O)N(C)C2)C1 (stereo unspecified) | 26.3
Cc1ccc(C(=O)N2CCC3(CC2)CC(NC(=O)C(C)C)CO3)cc1 (stereo unspecified) | 5.27
CC(C)NC(=O)N1CCOC2(CCCNC2)C1 (stereo unspecified) | 4.28
CCCC(=O)N1CCC2(CC1)COC2 | -7.56
O=S(=O)(c1ccccc1)N1C[C@@H]2CCN[C@@H]2C1 | -7.19
O=C(N[C@]12CC1CN(C(=O)c1ccco1)C2)c1cccc(F)c1 (stereo partly specified) | 13.8
O=C1NCCC12CN(CC1CC1)CC21CCNCC1 (stereo unspecified) | -6.52
O=C(N[C@]12CC1CN(C(=O)c1ccco1)C2)c1ccco1 (stereo partly specified) | -2.69

SMILES | cytotoxicity at 70.5 h [%]
CN(Cc1ccco1)C1CCC12CCN(C(=O)c1ccncc1)CC2 (stereo unspecified) | -5.53
Cc1ccc(S(=O)(=O)N2C[C@@H]3CCN[C@@H]3C2)cc1 | -4.81
O=C1CCC2(CCCN(C(=O)c3cccnc3)CC2)N1 (stereo unspecified) | -3.4
CN(C)C(=O)CN1CCC2(CC1)COC2 | -5.41
CN1CCC2(CCN(C(=O)c3ccccc3)CC2)C1 | 31.4
CC(C)C(=O)N1CCC2(CC1)[C@@H]1CN(C(=O)N(C)C)C[C@@H]1C(=O)N2C | 28.3
CC(=O)N1CCOC2(CCCN(C(=O)CCN3CCCCC3)C2)C1 (stereo unspecified) | -1.24
CCC(C)N1CCc2c(C(=O)N3CCOCC3)n[nH]c2C1 (stereo unspecified) | -3.05
C[C@@H]1C[C@H]2CN(C(=O)C3=CCCC3)C[C@H]2O1 | -4.11
CCNC(=O)[C@@H]1CCCN1[C@@H](C(=O)NC)c1ccccc1 | -8.33
COCCOC[C@]1(CNCc2ccc(OC)cc2)C[C@@H](O)[C@@H](O)C1 | -7.9
CNC(=O)[C@@H](c1ccccc1OC)N1CCC[C@H]1C(=O)NC(C)(C)C | -8.72
COC(=O)NCC1CCC2(CCNCC2)O1 (stereo unspecified) | 28.3
COc1cccc(CNC[C@@]2(COc3cccnc3)C[C@@H](O)[C@@H](O)C2)c1 | -3.95
O[C@@H]1C[C@@](CNCC2CCCC2)(COc2cccnc2)C[C@@H]1O | -6.04
COCC(=O)N1CCC2(CCC2N(C)Cc2ccco2)CC1 (stereo unspecified) | 3.06
COCc1nn(CC2CC2)c2c1CN(Cc1cncn1C)CC2 | 2.02
Cc1ccc(CN2CCCC3(CCCC(=O)N3)C2)s1 (stereo unspecified) | -8.14
Cn1nc(COCC2CC2)c2c1CCN(Cc1ccco1)C2 | -9.54
CN(C)C(=O)N1CCC2(CC1)CN(CC1CC1)CC21CCNC1=O (stereo unspecified) | 0.0936
O=C(C1CCCCC1)N1CCCC2(CCN(c3cnccn3)CC2)C1 | 23.6
CCN1CCN(C)C(=O)C12CCN(Cc1cccc(C)c1)CC2 | 2.19
Cc1cc(CN2CC[C@H]3[C@H]2CCN3CC(=O)N(C)C)oc1C | -5
COCCN1C(=O)CCC12CCCN(Cc1ccccc1F)C2 (stereo unspecified) | 31.9
